Molecules are shown by their SMILES.

Wee-1 kinase, sequence (P30291 whole entry): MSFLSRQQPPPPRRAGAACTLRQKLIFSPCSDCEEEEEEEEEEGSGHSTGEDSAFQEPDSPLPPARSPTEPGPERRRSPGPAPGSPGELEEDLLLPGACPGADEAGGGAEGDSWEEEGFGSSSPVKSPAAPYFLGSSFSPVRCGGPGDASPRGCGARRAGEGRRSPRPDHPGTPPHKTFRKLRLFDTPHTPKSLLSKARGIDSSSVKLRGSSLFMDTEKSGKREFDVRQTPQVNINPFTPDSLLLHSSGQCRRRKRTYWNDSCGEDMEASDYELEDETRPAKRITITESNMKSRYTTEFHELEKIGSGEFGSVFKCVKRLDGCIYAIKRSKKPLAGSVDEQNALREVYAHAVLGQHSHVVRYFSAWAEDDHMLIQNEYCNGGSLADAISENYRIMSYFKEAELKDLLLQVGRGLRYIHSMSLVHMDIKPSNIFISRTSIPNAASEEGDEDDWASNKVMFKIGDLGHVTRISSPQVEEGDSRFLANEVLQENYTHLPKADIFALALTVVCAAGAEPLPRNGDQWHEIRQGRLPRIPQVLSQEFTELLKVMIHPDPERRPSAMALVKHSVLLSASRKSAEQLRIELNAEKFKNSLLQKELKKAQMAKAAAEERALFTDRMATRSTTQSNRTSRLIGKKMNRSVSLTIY

The target in this experiment is Wee-1 kinase (Homo sapiens (Human), UniProt P30291). The experiment in a line: Measurement of Wee-1 kinase activity (ADP-Glo luminescence). The settings on record: read-out: Wee1 IC50. Format: biochemical. On the procedure:
Method 1: Measurement of Wee-1 Kinase Activity
In the measurement of Wee-1 activity, a commercial peptide Poly(Lys Tyr(4:1)) hydrobromide was purchased from Sigma Aldrich and used as the substrate. Activated Wee-1 kinase was purchased from Invitrogen (PV3817) and an ADP-Glo luminescent kit was purchased from Promega.
All reactions took place in […] volumes in reaction buffer containing 40 mM Tris-HCl and 20 mM magnesium chloride, supplemented with 0.1 mg/mL bovine serum albumin and 2 mM DTT. Compounds were serially diluted in buffer and 5 μL of each concentration pipetted into a white 384 well plate (Sigma Aldrich M6186). A 5 μL aliquot of the Wee-1 enzyme was added to each well and the plate centrifuged for 1 min to ensure mixing of the enzyme and inhibitor.
The plate was incubated at room temperature for 30 minutes before the addition of 2.0 μg/mL of substrate and 30 μM ATP in a 5 μL aliquot. The plate was centrifuged for one minute and incubated for 1 h at RT.
15 μL of ADP-Glo stop reagent was added to each well to quench the reaction and deplete unconverted ATP. The plate was incubated for a further 40 min in the dark at RT.
30 μL of ADP-Glo kinase detection reagent was added to each well, converting ADP to ATP, catalysing the generation of luciferin by luciferase. The plate was shaken for 1 min, and incubated in the dark for an additional hour.
Luminescence from each well was detected using the Biotek Synergy4 HD plate reader and the percentage inhibition of kinase activity calculated for each inhibitor tested. Positive (kinase only) and negative (no kinase) controls were added to each plate to ensure specific interaction of kinase and inhibitor. The IC50 concentration for each inhibitor was calculated by plotting the percentage kinase inhibition against concentration of inhibitor and the curve generated by non-linear regression fitting.
For orientation: ADP-Glo first removes unused ATP, then detects ADP through luciferase.
For `CC(C)n1c(=O)c2cnc(Nc3ccc(N4CCNCC4)cc3)nc2n1-c1cccc(N=S2(=O)CCCC2)n1` [Example 59, 1-{6-[(1-Oxo-1λ^6-thiolan-1-ylidene)amino]pyridin-2-yl}-6-{[4-(piperazin-1-yl)phenyl]amino}-2-(propan-2-yl)-1H,2H,3H-pyrazolo[3,4-d]pyrimidin-3-one], the IC50 was 1.2 nM.

On to `CC(C)n1c(=O)c2cnc(N(c3ccc(C#N)cc3)c3ccc(C#N)cc3)nc2n1-c1cccc(N=S(C)(C)=O)n1` [Example 60, 4-[(4-Cyanophenyl)[1-(6-{[dimethyl(oxo)-λ^6-sulfanylidene]amino}pyridin-2-yl)-3-oxo-2-(propan-2-yl)-1H,2H,3H-pyrazolo[3,4-d]pyrimidin-6-yl]amino]benzonitrile], for which the IC50 was found to be 760 nM.

For `CC(C)n1c(=O)c2cnc(Nc3ccc(Cl)cc3)nc2n1-c1cccc(N=S(C)(C)=O)n1` [Example 61, 6-[(4-Chlorophenyl)amino]-1-(6-{[dimethyl(oxo)-λ^6-sulfanylidene]amino}pyridin-2-yl)-2-(propan-2-yl)-1H,2H,3H-pyrazolo[3,4-d]pyrimidin-3-one], the IC50 is 0.6 nM.

Turning to `C=CCn1c(=O)c2cnc(Nc3ccc(Cl)cc3)nc2n1-c1cccc(N=S(C)(C)=O)n1` [Example 62, 6-[(4-Chlorophenyl)amino]-1-(6-{[dimethyl(oxo)-λ^6-sulfanylidene]amino}pyridin-2-yl)-2-(prop-2-en-1-yl)-1H,2H,3H-pyrazolo[3,4-d]pyrimidin-3-one], the IC50 was 0.3 nM.

With `C=CCn1c(=O)c2cnc(NC34CC(C3)C4)nc2n1-c1cccc(N=S(C)(C)=O)n1` [Example 63, 6-({Bicyclo[1.1.1]pentan-1-yl}amino)-1-(6-{[dimethyl(oxo)-λ^6-sulfanylidene]amino}pyridin-2-yl)-2-(prop-2-en-1-yl)-1H,2H,3H-pyrazolo[3,4-d]pyrimidin-3-one], the IC50 came to 1000 nM.

Turning to `C=CCn1c(=O)c2cnc(Nc3ccc(C(C)(C)C)cc3)nc2n1-c1cccc(N=S(C)(C)=O)n1` [Example 64, 6-[(4-tert-Butylphenyl)amino]-1-(6-{[dimethyl(oxo)-λ^6-sulfanylidene]amino}pyridin-2-yl)-2-(prop-2-en-1-yl)-1H,2H,3H-pyrazolo[3,4-d]pyrimidin-3-one], the IC50 was 1.6 nM.

In the case of `CC(C)n1c(=O)c2cnc(Nc3ccc(F)cc3F)nc2n1-c1cccc(N=S(C)(C)=O)n1` [Example 65, 6-[(2,4-Difluorophenyl)amino]-1-(6-{[dimethyl(oxo)-λ^6-sulfanylidene]amino}pyridin-2-yl)-2-(propan-2-yl)-1H,2H,3H-pyrazolo[3,4-d]pyrimidin-3-one], the half-maximal inhibitory concentration (IC50) was 68 nM.

In the case of `C=CCn1c(=O)c2cnc(Nc3ccc(F)c(F)c3)nc2n1-c1cccc(N=S(C)(C)=O)n1` [Example 66, 6-[(3,4-Difluorophenyl)amino]-1-(6-{[dimethyl(oxo)-λ^6-sulfanylidene]amino}pyridin-2-yl)-2-(prop-2-en-1-yl)-1H,2H,3H-pyrazolo[3,4-d]pyrimidin-3-one], the IC50 came out at 0.5 nM.

Turning to `C=CCn1c(=O)c2cnc(Nc3ccc(N4C[C@@H]5C[C@H]4CO5)cc3)nc2n1-c1cccc(N=S(C)(C)=O)n1` [Example 68, 1-(6-{[Dimethyl(oxo)-λ^6-sulfanylidene]amino}pyridin-2-yl)-6-({4-[(1S,4S)-2-oxa-5-azabicyclo[2.2.1]heptan-5-yl]phenyl}amino)-2-(prop-2-en-1-yl)-1H,2H,3H-pyrazolo[3,4-d]pyrimidin-3-one], the IC50 worked out at 0.3 nM.

Take `C=CCn1c(=O)c2cnc(Nc3ccc(F)nc3)nc2n1-c1cccc(N=S(C)(C)=O)n1` [Example 70, 1-(6-{[Dimethyl(oxo)-λ^6-sulfanylidene]amino}pyridin-2-yl)-6-[(6-fluoropyridin-3-yl)amino]-2-(prop-2-en-1-yl)-1H,2H,3H-pyrazolo[3,4-d]pyrimidin-3-one]: the IC50 was determined as 2.5 nM.

Take `CC(C)n1c(=O)c2cnc(Nc3ccc(C#N)cc3)nc2n1-c1cccc(N=S(C)(C)=O)n1` [Example 71, 4-{[1-(6-{[Dimethyl(oxo)-λ^6-sulfanylidene]amino}pyridin-2-yl)-3-oxo-2-(propan-2-yl)-1H,2H,3H-pyrazolo[3,4-d]pyrimidin-6-yl]amino}benzonitrile]: the IC50 was 26 nM.

As to `CC(C)n1c(=O)c2cnc(Nc3ccc(C(F)(F)F)cc3)nc2n1-c1cccc(N=S(C)(C)=O)n1` [Example 72, 1-(6-{[Dimethyl(oxo)-λ^6-sulfanylidene]amino}pyridin-2-yl)-2-(propan-2-yl)-6-{[4-(trifluoromethyl)phenyl]amino}-1H,2H,3H-pyrazolo[3,4-d]pyrimidin-3-one], the IC50 was determined as 19 nM.

In the case of `CC(C)n1c(=O)c2cnc(Nc3cccc(C(F)(F)F)c3)nc2n1-c1cccc(N=S(C)(C)=O)n1` [Example 73, 1-(6-{[Dimethyl(oxo)-λ^6-sulfanylidene]amino}pyridin-2-yl)-2-(propan-2-yl)-6-{[3-(trifluoromethyl)phenyl]amino}-1H,2H,3H-pyrazolo[3,4-d]pyrimidin-3-one], the IC50 turned out to be 66 nM.

Take `C=CCn1c(=O)c2cnc(Nc3ccc(N4CCO[C@H](COC)C4)cc3)nc2n1-c1cncc(N=S(C)(C)=O)n1` [Example 74, 1-(6-{[Dimethyl(oxo)-λ^6-sulfanylidene]amino}pyrazin-2-yl)-6-({4-[(2S)-2-(methoxymethyl)morpholin-4-yl]phenyl}amino)-2-(prop-2-en-1-yl)-1H,2H,3H-pyrazolo[3,4-d]pyrimidin-3-one]: the IC50 was found to be 0.3 nM.

Consider `C=CCn1c(=O)c2cnc(Nc3ccc(F)cc3)nc2n1-c1cncc(N=S(C)(C)=O)n1` [Example 75, 1-(6-{[Dimethyl(oxo)-λ^6-sulfanylidene]amino}pyrazin-2-yl)-6-[(4-fluorophenyl)amino]-2-(prop-2-en-1-yl)-1H,2H,3H-pyrazolo[3,4-d]pyrimidin-3-one], for which the IC50 amounted to 1.4 nM.

In the case of `C=CCn1c(=O)c2cnc(Nc3cccnc3)nc2n1-c1cccc(N=S(C)(C)=O)n1` [Example 77, 1-(6-{[Dimethyl(oxo)-λ^6-sulfanylidene]amino}pyridin-2-yl)-2-(prop-2-en-1-yl)-6-[(pyridin-3-yl)amino]-1H,2H,3H-pyrazolo[3,4-d]pyrimidin-3-one], the IC50 was determined as 1000 nM.

For the compound `C=CCn1c(=O)c2cnc(Nc3cnn(C)c3)nc2n1-c1cccc(N=S2(=O)CCCC2)n1` [Example 78, 6-[(1-Methyl-1H-pyrazol-4-yl)amino]-1-{6-[(1-oxo-1λ^6-thiolan-1-ylidene)amino]pyridin-2-yl}-2-(prop-2-en-1-yl)-1H,2H,3H-pyrazolo[3,4-d]pyrimidin-3-one], the IC50 came out at 2.5 nM.

Regarding `C=CCn1c(=O)c2cnc(Nc3cnn(C)c3)nc2n1-c1cccc(N=[S@@](C)(=O)c2ccccc2)n1` [Example 79, 1-(6-{[(S)-Methyl(oxo)phenyl-λ^6-sulfanylidene]amino}pyridin-2-yl)-6-[(1-methyl-1H-pyrazol-4-yl)amino]-2-(prop-2-en-1-yl)-1H,2H,3H-pyrazolo[3,4-d]pyrimidin-3-one], the IC50 was 46 nM.

For `C=CCn1c(=O)c2cnc(Nc3cnn(C(C)C)c3)nc2n1-c1cccc(N=S(C)(C)=O)n1` [Example 80, 1-(6-{[Dimethyl(oxo)-λ^6-sulfanylidene]amino}pyridin-2-yl)-2-(prop-2-en-1-yl)-6-{[1-(propan-2-yl)-1H-pyrazol-4-yl]amino}-1H,2H,3H-pyrazolo[3,4-d]pyrimidin-3-one], the IC50 was 0.3 nM.

Take `C=CCn1c(=O)c2cnc(Nc3ccc(C(F)(F)F)nc3)nc2n1-c1cccc(N=S(C)(C)=O)n1` [Example 81, 1-(6-{[Dimethyl(oxo)-λ^6-sulfanylidene]amino}pyridin-2-yl)-2-(prop-2-en-1-yl)-6-{[6-(trifluoromethyl)pyridin-3-yl]amino}-1H,2H,3H-pyrazolo[3,4-d]pyrimidin-3-one]: the IC50 turned out to be 1.3 nM.

In the case of `C=CCn1c(=O)c2cnc(Nc3ccc(F)c(OC)c3)nc2n1-c1cccc(N=S(C)(C)=O)n1` [Example 82, 1-(6-{[Dimethyl(oxo)-λ^6-sulfanylidene]amino}pyridin-2-yl)-6-[(4-fluoro-3-methoxyphenyl)amino]-2-(prop-2-en-1-yl)-1H,2H,3H-pyrazolo[3,4-d]pyrimidin-3-one], the IC50 came out at 0.4 nM.

With `C=CCn1c(=O)c2cnc(Nc3cc(F)cc(F)c3)nc2n1-c1cccc(N=S(C)(C)=O)n1` [Example 84, 6-[(3,5-Difluorophenyl)amino]-1-(6-{[dimethyl(oxo)-λ^6-sulfanylidene]amino}pyridin-2-yl)-2-(prop-2-en-1-yl)-1H,2H,3H-pyrazolo[3,4-d]pyrimidin-3-one], the IC50 came to 1 nM.

For `C=CCn1c(=O)c2cnc(Nc3cnn(CC(F)(F)F)c3)nc2n1-c1cccc(N=S(C)(C)=O)n1` [Example 85, 1-(6-{[Dimethyl(oxo)-λ^6-sulfanylidene]amino}pyridin-2-yl)-2-(prop-2-en-1-yl)-6-{[1-(2,2,2-trifluoroethyl)-1H-pyrazol-4-yl]amino}-1H,2H,3H-pyrazolo[3,4-d]pyrimidin-3-one], the IC50 was 0.6 nM.

In general, IC50 refers to the concentration that gives 50% inhibition.
